Where a name gives a salt, the structure may show the parent alone.
SMILES	melting point [°C]
CCc1c(C)cc(C)c(C)c1Oc1nnc(Cl)cc1O [Compound No. 2601, 6-Chloro-3-(2-ethyl-3,5,6-trimethylphenoxy)-4-pyridazinol]	188 to 195
Cc1ccc(C(C)C)cc1Oc1nnc(Cl)cc1O [Compound No. 623, 6-Chloro-3-(5-isopropyl-2-methylphenoxy)-4-pyridazinol]	168 to 169
CCC(C)c1ccccc1Oc1nnc(Cl)cc1O (stereo not drawn) [Compound No. 135, 3-(2-s-Butylphenoxy)-6-chloro-4-pyridazinol]	158 to 159
CCc1cc(I)ccc1Oc1nnc(Cl)cc1O [Compound No. 562, 6-Chloro-3-(2-ethyl-4-iodophenoxy)-4-pyridazinol]	199 to 201
CC(C)c1cccc([N+](=O)[O-])c1Oc1nnc(Cl)cc1O [Compound No. 911, 6-Chloro-3-(2-isopropyl-6-nitrophenoxy)-4-pyridazinol]	205 to 209
N#CC1(c2ccccc2Oc2nnc(Cl)cc2O)CC1 [Compound No. 173, 1-{2-[(6-Chloro-4-hydroxy-3-pyridazinyl)oxy]phenyl}cyclopropanecarbonitrile]	63 to 64
Oc1cc(Cl)nnc1Oc1c(Cl)cccc1Br [Compound No. 734, 3-(2-Bromo-6-chlorophenoxy)-6-chloro-4-pyridazinol]	266 to 274
COCc1ccccc1Oc1nnc(Cl)cc1O [Compound No. 324, 6-Chloro-3-[2-(methoxymethyl)phenoxy]-4-pyridazinol]	211 to 212
CC=Cc1ccc(F)cc1Oc1nnc(Cl)cc1O [Compound No. 679, 6-Chloro-3-[5-fluoro-2-(1-propenyl)phenoxy]-4-pyridazinol]	210 to 217
C=CCc1cccc(CC=C)c1Oc1nnc(Cl)cc1O [Compound No. 982, 6-Chloro-3-(2,6-diallylphenoxy)-4-pyridazinol]	131 to 135
COc1cccc(Oc2nnc(Cl)cc2O)c1 [Compound No. 425, 6-Chloro-3-(3-methoxyphenoxy)-4-pyridazinol]	199 to 203
CON=C(C)c1ccccc1Oc1nnc(Cl)cc1O [Compound No. 334, 1-{2-[(6-Chloro-4-hydroxy-3-pyridazinyl)oxy]phenyl}ethanone O-methyloxime]	165 to 167
Cc1c(F)cccc1Oc1nnc(Cl)cc1O [Compound No. 453, 6-Chloro-3-(3-fluoro-2-methylphenoxy)-4-pyridazinol]	242 to 244
COc1cccc(OC)c1Oc1nnc(Cl)cc1O [Compound No. 987, 6-Chloro-3-(2,6-dimethoxyphenoxy)-4-pyridazinol]	199 to 201
CCc1cccc(Cl)c1Oc1nnc(Cl)cc1O [Compound No. 737, 6-Chloro-3-(2-chloro-6-ethylphenoxy)-4-pyridazinol]	194 to 195
C[Si](C)(C)c1c(Cl)nnc(Oc2ccccc2)c1O	119 to 120
CC(C)Sc1ccccc1Oc1nnc(Cl)cc1O [Compound No. 403, 6-Chloro-3-[2-(isopropylsulfanyl)phenoxy]-4-pyridazinol]	176 to 177
CC(C)c1cccc(I)c1Oc1nnc(Cl)cc1O [Compound No. 782, 6-Chloro-3-(2-iodo-6-isopropylphenoxy)-4-pyridazinol]	250 to 255
CCCCCCc1ccccc1Oc1nnc(Cl)cc1O [Compound No. 138, 6-Chloro-3-(2-hexylphenoxy)-4-pyridazinol]	118 to 118.5
Cc1ccc(Oc2nnc(Cl)cc2O)c(C(C)(C)C)c1 [Compound No. 567, 3-(2-tert-Butyl-4-methylphenoxy)-6-chloro-4-pyridazinol]	230 to 236
COCc1c(Cl)nnc(Oc2ccccc2C)c1O [Compound No. 2378, 6-Chloro-5-(methoxymethyl)-3-(2-methylphenoxy)-4-pyridazinol]	123 to 126
O=S(=O)(Oc1cc(Cl)nnc1Oc1ccccc1C1CC1)C(F)(F)F (as salt: methanesulfonate) [Compound No. 2081, 6-Chloro-3-(2-cyclopropylphenoxy)-4-pyridazinyl trifluoromethanesulfonate]	54 to 61
Cc1cc(C)c([N+](=O)[O-])c(Oc2nnc(Cl)cc2O)c1C [Compound No. 2608, 6-Chloro-3-(2,3,5-trimethyl-6-nitrophenoxy)-4-pyridazinol]	172 to 174
O=Cc1cccc(Oc2nnc(Cl)cc2O)c1 [Compound No. 421, 3-[(6-Chloro-4-hydroxy-3-pyridazinyl)oxy]benzaldehyde]	188 to 192
Cc1ccccc1Oc1nnccc1O [Compound No. 5, 3-(2-Methylphenoxy)-4-pyridazinol]	169 to 171
CC(C)Oc1ccccc1Oc1nnc(Cl)cc1O [Compound No. 387, 6-Chloro-3-(2-isopropoxyphenoxy)-4-pyridazinol]	178 to 179
CCc1ccc(OC)cc1Oc1nnc(Cl)cc1O [Compound No. 635, 6-Chloro-3-(2-ethyl-5-methoxyphenoxy)-4-pyridazinol]	124 to 126

Now from value to compound:

melting point [°C]	SMILES
188 to 191	COC(=O)c1ccccc1Oc1nnc(Cl)cc1O [Compound No. 339, Methyl 2-[(6-chloro-4-hydroxy-3-pyridazinyl)oxy]benzoate]
181 to 183	Oc1cc(Cl)nnc1Oc1cccc2sccc12 [Compound No. 534, 3-(1-Benzothien-4-yloxy)-6-chloro-4-pyridazinol]
201 to 203	Oc1cc(Cl)nnc1Oc1ccccc1Br [Compound No. 126, 3-(2-Bromophenoxy)-6-chloro-4-pyridazinol]
145 to 152	CCOC1CC1c1ccccc1Oc1nnc(Cl)cc1O (stereo not drawn) [Compound No. 249, 6-Chloro-3-[2-(2-ethoxycyclopropyl)phenoxy]-4-pyridazinol]
178 to 180	Oc1cc(Cl)nnc1Oc1ccccc1C1CCCC1 [Compound No. 292, 6-Chloro-3-(2-cyclopentylphenoxy)-4-pyridazinol]
99 to 100	O=[N+]([O-])c1ccccc1Oc1nnc(Cl)cc1O [Compound No. 383, 6-Chloro-3-(2-nitrophenoxy)-4-pyridazinol]
115 to 116	Cc1ccc(S(=O)(=O)Oc2cc(Cl)nnc2Oc2ccc(Cl)cc2C)cc1 [Compound No. 2246, 6-Chloro-3-(4-chloro-2-methylphenoxy)-4-pyridazinyl 4-methylbenzenesulfonate]
187 to 188	C=C(C)c1ccccc1Oc1nnc(Cl)cc1O [Compound No. 304, 6-Chloro-3-(2-isopropenylphenoxy)-4-pyridazinol]
102 to 104	Cc1ccc(S(=O)(=O)Oc2cc(Cl)nnc2Oc2ccccc2C)cc1 [Compound No. 2220, 6-Chloro-3-(2-methylphenoxy)-4-pyridazinyl 4-methylbenzenesulfonate]
184 to 185	COc1cccc(Oc2nnc(Cl)cc2O)c1C1CC1 [Compound No. 478, 6-Chloro-3-(2-cyclopropyl-3-methoxyphenoxy)-4-pyridazinol]
158 to 163	Oc1cc(Cl)nnc1Oc1ccccc1C1CC1(Cl)Cl (stereo not drawn) [Compound No. 265, 6-Chloro-3-[2-(2,2-dichlorocyclopropyl)phenoxy]-4-pyridazinol]
105 to 106	Cc1cccc(C2CC2)c1Oc1nnc(Cl)cc1OS(=O)(=O)c1ccccc1 [Compound No. 2176, 6-Chloro-3-(2-cyclopropyl-6-methylphenoxy)-4-pyridazinyl benzenesulfonate]
228 to 230	CC1CCc2c(Oc3nnc(Cl)cc3O)cccc21 (stereo not drawn) [Compound No. 510, 6-Chloro-3-[(1-methyl-2,3-dihydro-1H-inden-4-yl)oxy]-4-pyridazinol]
146 to 149	COc1cscc1C(=O)Oc1cc(Cl)nnc1Oc1c(C)cccc1C1CC1 [Compound No. 3378, 6-Chloro-3-(2-cyclopropyl-6-methylphenoxy)-4-pyridazinyl 4-methoxy-3-thiophenecarboxylate]
155 to 175	CCOc1ccccc1Oc1nnc(Cl)cc1O [Compound No. 386, 6-Chloro-3-(2-ethoxyphenoxy)-4-pyridazinol]
106 to 108	Cc1ccc(S(=O)(=O)Oc2cc(Cl)nnc2Oc2ccccc2-c2ccccc2)cc1 [Compound No. 2231, 3-([1,1′-Biphenyl]-2-yloxy)-6-chloro-4-pyridazinyl 4-methylbenzenesulfonate]
89 to 90	Cc1ccc(S(=O)(=O)Oc2cc(Cl)nnc2Oc2c(C)cccc2C)cc1 [Compound No. 2263, 6-Chloro-3-(2,6-dimethylphenoxy)-4-pyridazinyl 4-methylbenzenesulfonate]
208 to 210	Cc1cccc(C2CC2)c1Oc1nnc(Cl)cc1OC(=O)n1c(C)ccc1C [Compound No. 3630, 6-Chloro-3-(2-cyclopropyl-6-methylphenoxy)-4-pyridazinyl 2,5-dimethyl-1H-pyrrole-1-carboxylate]
179 to 181	Oc1cc(Cl)nnc1Oc1cccc(C2CC2)c1 [Compound No. 417, 6-Chloro-3-(3-cyclopropylphenoxy)-4-pyridazinol]
213 to 215	Cc1cccc(C2CC2(Cl)Cl)c1Oc1nnc(Cl)cc1O (stereo not drawn) [Compound No. 827, 6-Chloro-3-[2-(2,2-dichlorocyclopropyl)-6-methylphenoxy]-4-pyridazinol]
107 to 109	Cc1ccccc1Oc1nnc(Cl)cc1OC(=O)N(C)C
128 to 130	Cc1cccc(C2CC2)c1Oc1nnc(Cl)cc1OC(=O)c1cc(Cl)ccc1Cl [Compound No. 3100, 6-Chloro-3-(2-cyclopropyl-6-methylphenoxy)-4-pyridazinyl 2,5-dichlorobenzoate]
114 to 116	COc1ccccc1C(=O)Oc1cc(Cl)nnc1Oc1ccccc1C [Compound No. 1509, 6-Chloro-3-(2-methylphenoxy)-4-pyridazinyl 2-methoxybenzoate]
120 to 121	Cc1ccc(S(=O)(=O)Oc2cc(Cl)nnc2Oc2ccccc2C2CCCCC2)cc1 [Compound No. 2230, 6-Chloro-3-(2-cyclohexylphenoxy)-4-pyridazinyl 4-methylbenzenesulfonate]
